# Measurements reported in US9006174B2 (priority 2009, dated 2015).
# Ends that are not written are not given here.
# Tested on: hRBCs
# Details: human erythrocytes, 1 h at 37° C.
row,Sequence,Toxicity Haemolysis (hRBCs)
1,RFGRFLRKIRRFRGKVTITIQGSARF [CMAP26 (P14→G)],− (<25% dead cells)
2,RFGRFLRKIRRFRLKVTITIQGSARF [CMAP26 (P14→L)],− (<25% dead cells)
3,"RFGRFLRKIRRLRPK [CMAP(1-15) (F12→L), RFGRFLRKIRRLRPK]",− (<25% dead cells)
4,"RFGRFLRKIRRWRPK [CMAP(1-15) (F12→W), RFGRFLRKIRRWRPK]",−− (<5% dead cells)
